What all share (assay): inhibition of tumour cell growth, NCI panel, 48 h
In assay [1] the test system is SNB-75 CNS.
The test system of assay [2] is LOX IMVI melanoma.
Assay [3] relates to HCC-2998 colon.
Assay [4] has as its system HL-60(TB) leukemia.
Assay [5] deals with TK-10 renal.
Assay [6] relates to UO-31 renal.
Assay [7] has as its system OVCAR-5 ovarian.
Assay [8] concerns SF-268 CNS.
Assay [9] deals with MDA-MB-435.
Assay [10] has as its system MDA-MB-231 breast.

Structures are written as SMILES. Several values for one entry are separate records, joined by “and”; a condition that tells them apart may be missing. Equal values may be shown once.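 Dose response: 5 concentrations. Exposure: 48 h. Format: 96-well plates. Endpoint: linear interpolation; highest concentration if not reached. GI50 = concentration required for 50% inhibition of growth. TGI denotes the concentration required for complete inhibition of growth.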 Where only a bound is given, the exact number is not on record here.

As for `O=C([O-])c1ccccc1Nc1ccccc1C(=O)[O-].[OH3+].[Zn+2]`, the TGI is 37.2 µM in [1]; 44.9 µM in assay [2]; more than 100 µM in [3]; 49.4 µM in assay [4]; more than 100 µM in [5]; more than 63.1 µM in [6]. Moreover, the TGI in assay [7] is more than 100 µM; in [8], 40.2 µM.

As to `COc1cc(/C=C2\C(=O)Nc3ccc(Cl)cc32)cc(OC)c1OC`, the GI50 in assay [1] was 7 µM; in assay [9] it was 3.26 µM; in [2], 21.9 µM; in [3], 5.82 µM; in [4] it was 13.4 µM; in assay [5], 24 µM. The GI50 in assay [6] is 16 µM; in assay [7], 21.2 µM; in assay [8], 8.99 µM; in assay [10], 11.4 µM. The TGI is 21.8 µM in assay [1]; 9.37 µM in [9]; more than 100 µM in assay [2]; 61.2 µM in assay [3]; more than 100 µM in [4]; 78.3 µM in assay [5]. The TGI in assay [6] is more than 100 µM; in assay [7], 62.3 µM; in assay [8], more than 100 µM; in assay [10], 37.3 µM.

Regarding `O=C1NCN(c2ccccc2)C12CCN(CCCN1CCN(CCOC(c3ccccc3)c3ccccc3)CC1)CC2`, the TGI in [1] worked out at 5.46 µM; in assay [9], 2.46 µM; in assay [2], 6.18 µM; in assay [3], 1.02 µM; in assay [4], 4.31 µM; in assay [5], 7.15 µM. Besides, the TGI in [6] was 4.39 µM; in [7] it was 10.1 µM; in [8] it was 5.77 µM; in [10], 7.25 µM.

In the case of `CCCCC1Nc2ccccc2-c2ccnc(Cl)c21` (centres undefined), the TGI is 52.3 µM in assay [1]; 41.7 µM in [9]; 34.7 µM in assay [2]; 69.4 µM in assay [3]; 51.8 µM in assay [4]; more than 100 µM in assay [5]. Moreover, the TGI was 55.8 µM in assay [6], 89.2 µM in [8] and 43.8 µM in assay [10].

In the case of `Cc1cc(C)n(CN(CCCCO)Cn2nc(C)cc2C)n1`, the TGI in assay [9] is 38.4 µM; in [2] it was 51.2 µM; in assay [4] it was 79 µM; in [5] it was more than 100 µM; in assay [6] it was 69.1 µM; in assay [7] it was 51.1 µM. Further, the TGI in assay [8] was 65.2 µM; in assay [10] it was 78.6 µM.

As for `N=C1c2ccccc2C(=O)c2c(NCCNCCO)ccc(O)c21`, the TGI in assay [1] is 49.3 µM; in assay [2], 15.6 µM; in assay [3] it was 21.4 µM; in assay [4], 27.6 µM; in assay [5], more than 62.3 µM; in [6], 32.7 µM. In addition, the TGI in [7] was 84.7 µM; in [8], 14.2 µM.

With `COC1=CC(c2ccc[nH]2)=N/C1=C\c1[nH]c(C)c(CC(=O)NCc2ccccc2)c1C`, the GI50 is 1.51 µM in assay [1]; 1.68 µM in assay [9]; 1.55 µM in [3]; 1.63 µM in [4]; 1.75 µM in assay [5]; 1.64 µM in assay [6]. In addition, the TGI is 2.89 µM in assay [1]; 3.23 µM in assay [9]; 3.07 µM in assay [3]; 3.47 µM in assay [4]; 3.24 µM in assay [5]; 3.16 µM in [6].

Take `COc1cc2c(c(OC)c1OC)-c1ccc(OC)c(=O)cc1C(NC(=O)CCCCCNc1ccc(N=[N+]=[N-])cc1[N+](=O)[O-])CC2` (centres undefined): the TGI in assay [9] was less than 0.01 µM; in assay [2], 9.55 µM; in assay [4], less than 0.01 µM; in [5] it was 57.8 µM; in assay [7], 31.4 µM; in assay [8], 10.3 µM. In addition, in assay [10], the TGI was less than 0.01 µM.

Consider `O=S(=O)(O)c1ccc(N=Nc2ccc(N=Nc3c(O)ccc4ccc(S(=O)(=O)O)cc34)cc2)cc1`, for which the TGI in [9], in assay [3], in [4], in assay [5], in assay [6] and in [7] was more than 100 µM throughout. The TGI in [8] and in assay [10] was more than 100 µM throughout.

Consider `CC(C)(C)c1ccc(NS(=O)(=O)c2ccc(N)cc2)cc1`, for which the TGI was 92.7 µM in assay [1]; 73.5 µM in assay [9]; 33.1 µM in assay [2]; 39.5 µM in [3]; 38.1 µM in [4]; more than 100 µM in [5]. The TGI in assay [6] was 73.5 µM; in assay [7] it was 84.3 µM; in assay [8] it was 78.2 µM; in assay [10] it was 68.1 µM.

In the case of `COc1ccccc1N1C(=O)CSC1c1cccc(Oc2ccccc2)c1` (centres undefined), the TGI in assay [1] was determined as 41.7 µM; in assay [9] it was 32 µM; in assay [2] it was 32.4 µM; in [4], 72.6 µM; in assay [5] it was 48.4 µM; in assay [6] it was 32.9 µM. Further, the TGI in assay [7] came to 50.4 µM; in [8] it was 36.3 µM; in [10] it was 32.4 µM.

As for `COc1ccc2c(c1)C(=O)c1c-2n(CCCN=[N+]=[N-])c(=O)c2cc([N+](=O)[O-])ccc12`, the GI50 was 3.47 µM in assay [1]; 0.252 µM and 0.491 µM in [9]; 0.0707 µM and 0.177 µM in assay [2]; 0.013 µM in assay [3]; 15.2 µM in assay [5]; less than 0.001 µM in assay [6]. Further, the GI50 in [8] is less than 0.001 µM; in assay [10], 33.3 µM. For the same compound, the TGI is 20.5 µM in assay [1]; more than 100 µM in [9]; 0.737 µM in assay [2]; 37.3 µM in assay [5]; 2.22 µM in assay [6]; more than 100 µM in [7]. For the same compound, the TGI in assay [10] is more than 100 µM.

These data come from PubChem BioAssay (NCI).
